How the values were obtained:
Experiment in all cases: NCI-60 one-dose screening
Type in all cases: cell-based
[1] = test system: PC-3; conditions: Homo sapiens, PC-3, Prostate Cancer, read-out: GI (%)
[2] = test system: SF-268; conditions: Homo sapiens, SF-268, CNS Cancer, read-out: GI (%)
[3] = test system: OVCAR-8; conditions: Homo sapiens, OVCAR-8, Ovarian Cancer, read-out: GI (%)
[4] = test system: UO-31; conditions: Homo sapiens, UO-31, Renal Cancer, read-out: GI (%)
[5] = test system: UACC-62; conditions: Homo sapiens, UACC-62, Melanoma, read-out: GI (%)
[6] = test system: RXF 393; conditions: Homo sapiens, RXF 393, Renal Cancer, read-out: GI (%)
[7] = test system: OVCAR-3; conditions: Homo sapiens, OVCAR-3, 10 μM; OVCAR-3, Ovarian Cancer; read-out: GI (%)
[8] = test system: OVCAR-4; conditions: Homo sapiens, OVCAR-4, 10 μM; OVCAR-4, Ovarian Cancer; read-out: GI (%)
[9] = test system: MCF7; conditions: Homo sapiens, MCF7, 10 μM; MCF7, Breast Cancer; read-out: GI (%)
[10] = test system: A549/ATCC; conditions: Homo sapiens, Non-Small Cell Lung Cancer, read-out: GI (%)
[11] = test system: SW-620; conditions: Homo sapiens, SW-620, Colon Cancer, read-out: GI (%)
[12] = test system: A498; conditions: Homo sapiens, A498, Renal Cancer, read-out: GI (%)
[13] = test system: MDA-MB-435; conditions: Homo sapiens, MDA-MB-435, Melanoma, read-out: GI (%)
[14] = test system: MDA-MB-231/ATCC; conditions: Homo sapiens, Breast Cancer, read-out: GI (%)
[15] = test system: K-562; conditions: Homo sapiens, K562, K-562, Leukemias, read-out: GI (%)
[16] = test system: MDA-MB-468; conditions: Homo sapiens, MDA-MB-468, Breast Cancer, read-out: GI (%)
[17] = test system: CAKI-1; conditions: Homo sapiens, CAKI-1, Renal Cancer, read-out: GI (%)
[18] = test system: TK-10; conditions: Homo sapiens, TK-10, Renal Cancer, read-out: GI (%)
[19] = test system: SK-MEL-2; conditions: Homo sapiens, SK-MEL-2, Melanoma, read-out: GI (%)
[20] = test system: 786-0; conditions: Homo sapiens, 786-0, Renal Cancer, read-out: GI (%)
[21] = test system: HCC-2998; conditions: Homo sapiens, HCC-2998, Colon Cancer, read-out: GI (%)
[22] = test system: HCT-15; conditions: Homo sapiens, HCT-15, Colon Cancer, read-out: GI (%)
[23] = test system: M14; conditions: Homo sapiens, M14, Melanoma, read-out: GI (%)
[24] = test system: SF-539; conditions: Homo sapiens, SF-539, CNS Cancer, read-out: GI (%)

Structure (SMILES)	inhibition at 10 µM [1]	inhibition at 10 µM [2]	inhibition at 10 µM [3]	inhibition at 10 µM [4]	inhibition at 10 µM [5]	inhibition at 10 µM [6]	inhibition at 10 µM [8]	inhibition at 10 µM [9]	inhibition at 10 µM [10]	inhibition at 10 µM [11]	inhibition at 10 µM [12]	inhibition at 10 µM [13]	inhibition at 10 µM [14]	inhibition at 10 µM [15]	inhibition at 10 µM [16]	inhibition at 10 µM [17]	inhibition at 10 µM [18]	inhibition at 10 µM [19]	inhibition at 10 µM [20]	inhibition at 10 µM [21]	other results
COc1cc(C=C2C(=O)Nc3ccccc32)ccc1O (mixture of isomers) [5a]	15.6%	14.7%	15.5%	47.7%	34.6%	-6.54%	18.2%	44.8%	3.48%	-0.49%	2.96%	18.5%	33.7%	9.79%	32.7%	36%	-90.5%	7.03%	-0.72%	-15%	inhibition at 10 µM [7]: 19.4%; inhibition at 10 µM [22]: 25.7%; inhibition at 10 µM [23]: 23.5%; inhibition at 10 µM [24]: 22.6%
COc1cc(C=C2C(=O)Nc3ccc(Cl)cc32)ccc1O (mixture of isomers) [5b]	13.8%	29.1%	13.8%	45%	87.1%	-7.81%	18.8%	57.5%	3.56%	-3.74%	25.6%	19.4%	36.7%	28.1%	31.3%	41%	-56.3%	6.25%	0.79%	-1.13%	inhibition at 10 µM [7]: 25.8%; inhibition at 10 µM [22]: 25.2%; inhibition at 10 µM [23]: 18.4%; inhibition at 10 µM [24]: 46.4%
COc1cc(C=C2C(=O)Nc3ccc(Cl)cc32)ccc1OCc1ccc(Cl)cc1 (mixture of isomers) [6g]	22.3%	20%	8.51%	37.9%	27%	9.18%	74 to 97%	54.4%	7.48%	23%	13.5%	-1.14%	21.6%	10.4%	17.2%	24.2%	-56%	-8.12%	4.52%	-4.18%	inhibition at 10 µM [7]: 74 to 97%; inhibition at 10 µM [22]: 13.9%; inhibition at 10 µM [23]: 2.22%; inhibition at 10 µM [24]: 10.7%
COc1cc(C=C2C(=O)Nc3ccc(Cl)cc32)ccc1OCc1ccc(F)cc1 (mixture of isomers) [6h]	15.8%	9.84%	8.78%	25.7%	29.8%	6.55%	74 to 97%	51%	15.1%	40.3%	6.57%	8.73%	13.1%	11.4%	12.8%	16.7%	-29%	-7.21%	-0.02%	-7.02%	inhibition at 10 µM [22]: 13.6%; inhibition at 10 µM [23]: 3.61%; inhibition at 10 µM [24]: 7.83%
COc1cc(C=C2C(=O)Nc3ccc(Cl)cc32)ccc1OCc1ccccn1 (mixture of isomers) [6j]	11.7%	1.24%	3.83%	29.6%	21.4%	-0.84%	8.34%	63%	-2.5%	2.21%	0.8%	-3.49%	4.62%	5.33%	14.6%	24.4%	-46.6%	-9.33%	-1.2%	-6.73%	inhibition at 10 µM [7]: 7.98%; inhibition at 10 µM [22]: 22.8%; inhibition at 10 µM [23]: -0.51%; inhibition at 10 µM [24]: 4.61%
COc1cc(/C=C2/C(=O)Nc3cc(Cl)ccc32)ccc1O [5c]	21.6%	21.8%	13%	39.5%	41.5%	6.84%	25.4%	54.4%	5.44%	3.92%	11.1%	17.8%	50.8%	19.6%	28.5%	31.6%	-60.3%	7.35%	2.08%	0.25%	inhibition at 10 µM [7]: 25.8%; inhibition at 10 µM [22]: 34.8%; inhibition at 10 µM [23]: 21.2%; inhibition at 10 µM [24]: 39.8%
COc1cc(/C=C2/C(=O)Nc3ccc(Cl)cc32)ccc1OCc1ccccc1 [6f]	10%	5.46%	-6.25%	22.4%	11.5%	-11.6%	-6.85%	19.2%	-0.72%	4.03%	-2.34%	-1.21%	7.87%	-8.73%	5.59%	7.2%	-15.1%	-0.03%	-3.53%	-7.18%	inhibition at 10 µM [7]: -6.72%; inhibition at 10 µM [22]: 4.2%; inhibition at 10 µM [23]: 0.98%; inhibition at 10 µM [24]: 2.76%
COc1ccc(COc2ccc(/C=C3/C(=O)Nc4ccc(Cl)cc43)cc2OC)cc1 [6i]	11.3%	-0.7%	1.18%	30.9%	17.9%	-7.98%	-0.39%	22.3%	-1.42%	6.24%	-6.49%	-5.33%	-0.06%	6.52%	5.64%	15.4%	-18.4%	-5.26%	0.79%	-4.23%	inhibition at 10 µM [7]: -1.86%; inhibition at 10 µM [22]: 3.59%; inhibition at 10 µM [23]: 0.06%; inhibition at 10 µM [24]: -1.4%
